# Patent US20080201790A1, “Method and product for regulating cell responsiveness to external signals” (priority 1993, published 2008)
# Tests used:
# MEK-1 = MEK-1 (Homo sapiens, UniProt Q02750); conditions: Alessi et al. 1995; cited from earlier work
# p42/p44 MAPK = assay: MAPK assay (DEAE-Sephacel, EGFR662-681 peptide) in L929 cells; assay type: cell-based, murine; conditions: L929 cells
# Method: (§1) In panel A cells were treated for 10 minutes with the indicated concentration of TNFα. JNK activation was measured using a solid phase kinase assay resulting in phosphorylation of GST-Jun. In […] the time course of MAPK activation is shown. MAPK was isolated from cell lysates on DEAE sephacel columns and MAPK activation was measured by phosphorylation of the EGFR peptide substrate. Panel C depicts the concentration curve of MAPK activation by TNFα. Cells were treated with the indicated concentration of TNFα and MAPK was assayed.
# FIG. 26 depicts the activation of MAPK by bFGF in L929 cells. Serum starved L929 cells were stimulated for 10 min with the indicated concentration of bFGF.
# (§2) Cell lines and culture. L929 cells (ATCC CCL1 were maintained in Dulbecco's modified Eagle's medium with 5% newborn calf serum and 5% bovine calf serum (BCS) supplemented with 100 ug/ml streptomycin and 100 U/ml penicillin. The cells were grown in 10 cm dishes at 37° C. in 7.5% CO2. Cells were made quiescent where indicated by incubation in Dulbecco's modified Eagle's medium and 0.1% bovine serum albumin for 24 h. Recombinant murine TNFα and recombinant human bFGF (147aa) were from R&D Systems, Minneapolis, Minn. Cells were pretreated where indicated with the MEK-1 inhibitor PD#098059 (Parke-Davis Pharmaceutical Corp. Ann Arbor, Mich.) for 1 h at 37° C. Cells were stimulated by incubation with the indicated cytokine or growth factor for various times at 37° C. Stimulation was stopped by rinsing the plates twice with ice cold phosphate buffered saline (PBS) and lysing the cells in the appropriate lysis buffer. Cells were scraped from the plates and nuclei were pelleted for 10 min at 14,000 RPM in a microcentrifuge. JNK assay. JNK activity was measured using a solid state kinase assay in which glutathione S-transferase-c-Jun (1-79) (GST-JUN) cound to glutathione-Sepharose 4B beads was used to affinity purify JNK and then JNK activity was measured in an in vitro kinase assay using the sepharose bound GST-Jun as a substrate (Hibi, M., et al. (1993) Genes & Development 7:2135-2148). Stimulated or unstimulated cells were lysed in 0.5% Nonidet P-40, 20 mM HEPES pH 7.2, 100 mM NaCl, 2 mM dithiothreitol, 1 mM EDTA, 1.0 mM phenylmethylsulfonylfluoride, 1 μg/ml aprotinin and the nuclei pelleted. Lysates were normalized for protein content. JNK was affinity purified from 50-100 μg of cell lysate by the addition of 10 ul of GST-Jun sepharose slurry (2 μg GST-Jun). Binding to GST-Jun efficiently isolates the two major forms of JNK (p45 and p55) and under the conditions used JNK isolation was linear for 10-250 μg of cell lysate. The lysates were rotated at 4° C. for 1-3 h. Beads were washed twice in lysis buffer and then twice in PAN (10 mM PIPES, pH 7.0, 100 mM NaCl, 21 μg/ml aprotinin). Kinase reactions were carried out at 30° C. for 15 min in 20 mM Hepes pH 7.2, 20 mM β-glycerophosphate, 10 mM p-nitrophenyl phosphate, 10 mM MgCl2, 1 mM dithiothreitol, 50 μm sodium vanadate, 10 μCi γ^32P-ATP 4300 Ci/mmole. The kinase reaction was linear from 0-30 min. MAPK Assay MAPK activity was measured exactly as described previously (Gardner, A. M., et al. (1994) Meth. Enzymol. 238:258-270) with the exception that MonoQ FPLC fractionation was replaced by step elution from a DEAE-Sephacel column using 0.5 M NaCl in loading buffer. The eluate was assayed in triplicate using the epidermal growth factor receptor 662-681 peptide (EGFR662-681) as a selective substrate for MAPK activity (Heasley, L. E., et al. (1994) American Journal of Physiology (Renal Fluid Electrolyte Physiol. 36) 267:F366-F373). […] Cells were lysed by scraping in ice cold RIPA buffer (50 mM Tris-HCl, pH 7.2, 150 mM NaCl, 0.1% SDS, 0.5% sodium deoxycholate, 1.0% Triton X-100, 10 mM sodium pyrophosphate, 25 mM β-glycerophosphate, 2 mM sodium vanadate, 2.1 μg/ml aprotinin) and the nuclei were pelletted. […]
# L929 cells = assay: Neutral red cell viability assay of L929 cells treated with TNFα and/or bFGF; assay type: cell-based, murine; conditions: L929 cells
# Method: In panel A cells were treated with the indicated concentrations of TNFα for 15 hours and were assayed for uptake of neutral red. In panel B cells were untreated (solid bars), treated with 0.5 ng/ml bFGF (dotted bars) or 5.0 ng/ml bFGF (hatched bars) and the indicated concentrations of TNFα for 18 hours. Cell viability was assessed by neutral red assay.
# In panel A serum starved L929 cells were untreated or treated for 1 hour at 37° C. with the MEK-1 inhibitor (PD) and then unstimulated or stimulated with bFGF. MAPK activity was measured. In panel B L929 cells were untreated or treated for 1 hour at 37° C. with PD and then were untreated or treated with TNFα alone or in combination with bFGF for 18 hours. Cell viability was assessed by neutral red assay.
# Cell lines and culture. L929 cells (ATCC CCL1 were maintained in Dulbecco's modified Eagle's medium with 5% newborn calf serum and 5% bovine calf serum (BCS) supplemented with 100 ug/ml streptomycin and 100 U/ml penicillin. The cells were grown in 10 cm dishes at 37° C. in 7.5% CO2. Cells were made quiescent where indicated by incubation in Dulbecco's modified Eagle's medium and 0.1% bovine serum albumin for 24 h. Recombinant murine TNFα and recombinant human bFGF (147aa) were from R&D Systems, Minneapolis, Minn. Cells were pretreated where indicated with the MEK-1 inhibitor PD#098059 (Parke-Davis Pharmaceutical Corp. Ann Arbor, Mich.) for 1 h at 37° C. Cells were stimulated by incubation with the indicated cytokine or growth factor for various times at 37° C. Stimulation was stopped by rinsing the plates twice with ice cold phosphate buffered saline (PBS) and lysing the cells in the appropriate lysis buffer. Cells were scraped from the plates and nuclei were pelleted for 10 min at 14,000 RPM in a microcentrifuge. JNK assay. JNK activity was measured using a solid state kinase assay in which glutathione S-transferase-c-Jun (1-79) (GST-JUN) cound to glutathione-Sepharose 4B beads was used to affinity purify JNK and then JNK activity was measured in an in vitro kinase assay using the sepharose bound GST-Jun as a substrate (Hibi, M., et al. (1993) Genes & Development 7:2135-2148). Stimulated or unstimulated cells were lysed in 0.5% Nonidet P-40, 20 mM HEPES pH 7.2, 100 mM NaCl, 2 mM dithiothreitol, 1 mM EDTA, 1.0 mM phenylmethylsulfonylfluoride, 1 μg/ml aprotinin and the nuclei pelleted. Lysates were normalized for protein content. JNK was affinity purified from 50-100 μg of cell lysate by the addition of 10 ul of GST-Jun sepharose slurry (2 μg GST-Jun). Binding to GST-Jun efficiently isolates the two major forms of JNK (p45 and p55) and under the conditions used JNK isolation was linear for 10-250 μg of cell lysate. The lysates were rotated at 4° C. for 1-3 h. Beads were washed twice in lysis buffer and then twice in PAN (10 mM PIPES, pH 7.0, 100 mM NaCl, 21 μg/ml aprotinin). Kinase reactions were carried out at 30° C. for 15 min in 20 mM Hepes pH 7.2, 20 mM β-glycerophosphate, 10 mM p-nitrophenyl phosphate, 10 mM MgCl2, 1 mM dithiothreitol, 50 μm sodium vanadate, 10 μCi γ^32P-ATP 4300 Ci/mmole. The kinase reaction was linear from 0-30 min. MAPK Assay MAPK activity was measured exactly as described previously (Gardner, A. M., et al. (1994) Meth. Enzymol. 238:258-270) with the exception that MonoQ FPLC fractionation was replaced by step elution from a DEAE-Sephacel column using 0.5 M NaCl in loading buffer. The eluate was assayed in triplicate using the epidermal growth factor receptor 662-681 peptide (EGFR662-681) as a selective substrate for MAPK activity (Heasley, L. E., et al. (1994) American Journal of Physiology (Renal Fluid Electrolyte Physiol. 36) 267:F366-F373). […]
# JNK = JNK solid state kinase assay (GST-Jun) in L929 cells; assay type: cell-based, murine; conditions: not shown
# Method: as §1, §2
# MEK-1, sequence (Q02750 whole entry, species assumed): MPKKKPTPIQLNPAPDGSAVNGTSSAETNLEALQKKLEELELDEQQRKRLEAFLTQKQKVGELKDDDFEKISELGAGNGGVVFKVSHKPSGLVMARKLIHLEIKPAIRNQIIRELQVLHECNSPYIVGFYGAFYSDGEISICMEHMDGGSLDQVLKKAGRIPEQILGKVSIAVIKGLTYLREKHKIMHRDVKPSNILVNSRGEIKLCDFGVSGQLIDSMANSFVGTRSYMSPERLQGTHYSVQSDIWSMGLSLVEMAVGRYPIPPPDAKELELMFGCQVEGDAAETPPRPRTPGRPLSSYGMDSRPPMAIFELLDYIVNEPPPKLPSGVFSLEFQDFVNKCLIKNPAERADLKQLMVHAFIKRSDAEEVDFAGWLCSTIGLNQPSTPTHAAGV
smiles,measurement,setting,value
"COc1cccc(-c2cc(=O)c3ccccc3o2)c1N [PD #098059, reference compound]",inhibition of MEK-1,MEK-1,"inhibits the dual specificity protein kinase, MEK-1"
same,effect on bFGF stimulation of MAPK activity,p42/p44 MAPK,inhibited bFGF stimulation of MAPK activity
same,effect on TNFα-mediated cell death,L929 cells,had no effect on TNFα-mediated apoptosis
same,effect on the protective action of bFGF against TNFα,L929 cells,inhibited the protective action of bFGF
same,inhibition of JNK kinase / activation of JNK,JNK,did not inhibit JNK kinase or the activation of JNK
